According to patent US20120005765A1, “ANIMAL MODEL FOR PARKINSON'S DISEASE” (Saint Louis University, priority 2010, published 2012):
Entries after “also recorded” stand apart in the source; their conditions may differ.

Legend:
α-synuclein [1] = target: α-synuclein (Homo sapiens, UniProt P37840); test: DOPAL-triggered α-synuclein aggregation in test tube, Western blot; format: biochemical; conditions: AS 2 μM, 37° C., up to 4 h, DOPAL 1.5-1,500 μM
Method: Determination of DOPAL-triggered α-synuclein aggregation in vitro. Western blot of DOPAL-triggered AS aggregation in test tube experiments. DOPAL was dissolved in 1% benzyl alcohol, then diluted to a final concentration of 1.5-1,500 μM as described previously. AS (2 μM) was incubated at 37° C. in 20 μl of 100 mM tris-HCl buffer (pH 7.2) with or without DA, DOPAL, DOPAC, or homovanillic acid (HVA) for up to 4 h. The reaction was stopped by heating at 70° C. for 3 min in SDS buffer. The entire mixture was transferred to the appropriate gel (vide infra).
SDS-PAGE and immunoblotting. Ten micrograms of protein (estimated by Bio Rad protein reagent) was resolved by electrophoresis on 4-12% bis-tris gels run with MES SDS buffer, and 3-8% tris-acetate gels using tris-acetate running buffer. For immunoblotting, the protein was transferred to PVDF blotting membranes with […] pore size, blocked with 5% milk protein in tris buffered saline (TBS) containing 0.1% Tween 20, and incubated for 1 h with a AS 202 monoclonal antibody (1:2,500 dilution). Blots were washed five times with 5% milk protein in TBS and probed with horseradish peroxidase-conjugated anti-mouse secondary antibody (1:2,500). Blots were washed five times with TBS containing. 0.5% Tween 20 before detection with Super Signal (Pierce).
Western blot analysis was performed to analyze DOPAL-induced aggregation of α-synuclein (FIG. 1). […]

Substantia Nigra Neurons = test: Unbiased stereology of substantia nigra neurons after DOPAL injection; format: in vivo; set-up: TOTAL SNpc Neurons / TOTAL SNr Neurons / TH SNpc Neurons: dose or concentration left out as unconfirmed
Description: Neuropathological Evaluation: Stereology The SN was included in 8-10 sections of all cases counted, and its total length was approximately 1.25 mm. Mean volume of the SNpc of control rats was […], while that of the SNpr was 777,696,500 m^3. Mean volume of the SNpc in the DOPAL injected rats was 264,674,833 m^3 while that of the SNpr was 760,212,500 m^3. There was no significant difference in mean volumes of SNpc or SNpr between controls and DOPAL injected rats. The inventors first counted TH immunoreactive neurons in the SNpc on the side of the DOPAL injection and compared them to those on the non-injected side. […] However, the inventors noted that numerous SNpc neurons sometimes were not stained for TH despite robust labeling of others (FIG. 3F). Thus, the inventors compared the number of Nissl stained profiles in sections immunostained with a-syn rather than TH in the SNpc's ipsilateral to the DOPAL injections to those of control rats which had received injections of a buffered saline solution into their SN's (Table 3). […] The inventors then determined whether DOPAL was toxic to neurons in the subjacent pars reticulata of the SN. The number of neurons in the SNpr of the DOPAL-injected rats was not different from the saline-injected rats (Table 3; FIG. 4C).
The effect of DOPAL injections into the substantia nigra on neurons in either the pars compacta (SNpc) or the pars reticularis (SNpr) are shown. Control animals were injected with buffered saline while experimental animals were injected with DOPAL (4 mg/800 nl). Unbiased stereology was used to assess the number of neurons (see Methods). Means (SD); n.s.=not significant.

α-synuclein [2] = target: T1, α-synuclein (Rattus norvegicus, UniProt P37377); test: DOPAL-triggered α-synuclein aggregation in vivo, intranigral injection, Western blot; conditions: rat SN injected with 1 μg or 0.2 μg DOPAL, 1 and 4 hours
T1 construct: from tissue; host or cells: substantia nigra of Sprague-Dawley rats
Description: Western blot of DOPAL-triggered AS aggregation in vivo Intranigral DOPAL injections and tissue preparation for Western blot. The housing and nutrition of the rats used in this study and all procedures performed on them conformed to standards set forth in the Guide for the Care and Use of Laboratory Animals of the National Research Council (National Academy Press, 1996). The experimental protocols reported herein were reviewed and approved by the Animal Care Committee of the Saint Louis University.
The details of the surgical and immunohistochemical methods have been previously described (Burke et al., Brain Res 989:205-213, 2003). Briefly, 2-month-old Sprague-Dawley rats (300 g; Harlan, Indianapolis, Ind., USA) were deeply anesthetized with 4% induction and maintained with 1% isoflurane. The heads of the rats were fixed in a stereotaxic apparatus (David Kopf, Tujunga, CA, USA). […]
Rats for Western blot analysis were killed after 4 h by injecting pentobarbital (100 mg/kg, IP). […] The black microspheres were identified in the pellets and supernatants were analyzed with Western blot as described above using AS 202 and J3-actin antibodies. For the 4-h 1.0-μg DOPAL and control SN injections, the density of the bands on the blot was determined using the UnScan it program (Silk Scientific, Orem, Utah, USA). The results were expressed as units of AS aggregate/unit of actin. […]

For `O=CCc1ccc(O)c(O)c1` [DOPAL, 3,4-dihydroxyphenylacetaldehyde], which “aggregation of α-synuclein oligomers in vitro” value (α-synuclein [1]) is on record?
Its value is “triggers dose-dependent aggregation”.

What about the “TOTAL SNpc Neurons” value (Substantia Nigra Neurons; DOPAL into substantia nigra, Means (SD), control 11926 (1084)) of the same compound?
The value was 6879 (422).

And the “TH SNpc Neurons” value (Substantia Nigra Neurons; DOPAL into substantia nigra, Means (SD), control 11969 (3699))?
Its value is 5884 (1365).

And the “TOTAL SNr Neurons” value (Substantia Nigra Neurons; DOPAL into substantia nigra, Means (SD), control 12422 (832))?
The value was 11761 (715).

What about the “number of Nissl-stained neurons in the SNpc, less than saline-injected rats” value (Substantia Nigra Neurons; p=0.001) of the same compound?
Its value is 43%.

What about the “mean number of TH immunoreactive SNpc neurons ipsilateral, less than contralateral non-injected side” value (Substantia Nigra Neurons; p=0.032) of the same compound?
The value was 50%.

What about the “number of neurons in the SNpr vs saline-injected rats” value (Substantia Nigra Neurons; rat, in vivo) of the same compound?
Its value is “not different”.

What about the “aggregation of α-synuclein in vivo” value (α-synuclein [2]) of the same compound?
Its value is “triggers a selective dose and time dependent aggregation; also recorded: even small amounts of DOPAL still aggregate α-synuclein”.
